The test system of data set [1] is IgG and IgM. Put plainly: Amount of antibodies formed in rats, PHA (phytohemaglutinin) reaction. The class given is in vivo, rats of wistar strain. On the procedure:
(§1) Effects on the formation of homocytotropic antibodies in rats
(§2) An experiment was carried out in accordance with the Tada and Okumura's method (J. Immunol., Vol. 106, p 1002, 1971).
(§3) Groups each consisting of 8-9 rats of wistar strain were used in this experiment.
(§4) As shown in Tables 2-5, to the four legs of the rats were injected 1 mg of dinitrophenylated extract of ascaris suum (DNP-As) as protein and 10^10 cells of vaccinum pertussis (B. Pertussis) for sensitization, after which the compounds of this invention were administered to the injected rats for 5 days. Eight to nine days after the sensitization, bloodletting was effected on these rats to collect their serum for estimating the amount of antibodies formed using passive cutaneous anaphylaxis (PCA) reactions and phytohemaglutinin (PHA) reactions.
(2) Estimation of the amount of antibodies by PHA reaction:
The collected serum was diluted in various concentrations and incubated with sheep red blood cells coupled with DNP-As using bis-diazoated benzydine to determine the dilution of the serum which induced the minimum hemaglutination. […]

Data set [2] deals with IgE antibodies. Put plainly: Formation of homocytotropic antibodies in rats, PCA (passive cutaneous anaphylaxis) reaction. The class given is in vivo, rats of wistar strain. On the procedure:
as §1, §2, §3, §4
(1) Estimation of the amount of antibodies by PCA reaction:
The collected serum was diluted in various concentrations and intradermally injected to other rats. Forty-eight (48) hours after the injection, 2 mg of DNP-As as protein and 0.5 ml of a 1% Evans Blue were intravenously injected into these rats to determine the dilution of the serum which induced the minimum extravasted dye. It should be noted that the symbols "*" and "**" in the following Tables indicate significant differences at risks of 5% and 1%, respectively. […]

The subject of data set [3] is IgE antibodies. Description: Formation of homocytotropic antibodies in mice, PCA reaction. The note with it: 100 mg/Kg/day for 5 days. The data set is classed as in vivo, mice (BALB/c strain), female. On the procedure: The collected serum was diluted in various concentrations and intradermally injected to other rats. Forty-eight (48) hours after the injection, 2 mg of DNP-As as protein and 0.5 ml of a 1% Evans Blue were intravenously injected into these rats to determine the dilution of the serum which induced the minimum extravasted dye. It should be noted that the symbols "*" and "**" in the following Tables indicate significant differences at risks of 5% and 1%, respectively.
(§5) Effects on the formation of homocytotropic antibodies in mice
(§6) Groups each consisting of 5 female mice (BALB/c strain) were used in this experiment. The mice were sensitized with 10 μg of DNP-As as protein and 3 mg of Al(OH)3, after which the test compound was administered to the sensitized mice for 5 days (at a dose of 100 mg/Kg/day). After the sensitization, a sample of serum was collected from the mice and treated in the same manner as in Experiment 1 to determine the amount of antibodies formed. […]

In data set [4] the test system is IgG and IgM. Put plainly: Amount of antibodies formed in mice, PHA reaction. The class given is in vivo, mice (BALB/c strain), female. The note with it: 100 mg/Kg/day for 5 days. On the procedure:
The collected serum was diluted in various concentrations and incubated with sheep red blood cells coupled with DNP-As using bis-diazoated benzydine to determine the dilution of the serum which induced the minimum hemaglutination.
as §5, §6

The nature of data set [5]: Acute poisoning test on rats. Conditions: rat, in vivo, three weeks. How it is done:
(§7) Each of the test compounds was suspended in a physiological solution of sodium chloride containing 0.5% of tragacanth gum to obtain a test suspension. The test suspensions so obtained were administered to rats and mice in various ways. LD50 was calculated from test animals which died in three weeks after the start of the test.

Data set [6] is described as follows: Acute poisoning test on mice. The note with it: mouse, in vivo, three weeks. On the procedure: as §7
The mark [7] stands for this setting: Table 4, oral administration, serum 8 days after the sensitization, control 320 (270-370).
Where [8] appears, read: Table 2, abdominal and oral administration, 5 days, serum 8 days after sensitization, control 237 (169-337).
Setting [9] is: Table 2, abdominal and oral administration, 5 days, serum 9 days after sensitization, control 169 (119-223).
[10] abbreviates: Table 6, oral, serum 10 days after sensitization, control 256 ± 128.
Where [11] appears, read: Table 6, oral, serum 21 days after sensitization, control 1024 ± 0.
Where [12] appears, read: Table 6, oral, serum 30 days after sensitization, control 299 ± 43.
The mark [13] stands for this setting: Table 11, hypodermic, serum 9 days after, control 380.2 (269.2-537.0), 100 mg/kg/day.
The mark [14] stands for this setting: Table 5 left half, hypodermic administration, serum 8 days after sensitization, control 1318.3 (933.3-1862.1).
Where [15] appears, read: Table 3 left half, hypodermic administration, serum 8 days after sensitization, control 144.5 (117.5-177.8).
The mark [16] stands for this setting: Table 9, hypodermic, serum 37 days after, control 3467.37 (2013.72-3767.04).
[17] abbreviates: Table 10, oral, serum 10 days after, control 125.9 (95.5-166.0).
Setting [18] is: Table 11, hypodermic, serum 9 days after, control 380.2 (269.2-537.0).
Setting [19] is: Table 11, hypodermic, serum 10 days after, control 109.7 (95.5-125.9).
Where [20] appears, read: Table 11, hypodermic, serum 37 days after, control 1071.5 (871.0-1318.3).
The mark [21] stands for this setting: Table 7, oral, serum 10 days after sensitization, control 537.0 (436.5-660.7).
Setting [22] is: Table 8, hypodermic, serum 9 days after, control 708.0 (575.4-871.0).
Setting [23] is: Table 8, hypodermic, serum 10 days after, control 537.0 (380.2-758.6).
Where [24] appears, read: Table 8, hypodermic, serum 37 days after, control 2818.4 (1862.1-4265.8).
[25] abbreviates: Table 5 right half, hypodermic administration, serum 8 days after sensitization, control 3235.9 (2454.7-4265.8).
Where [26] appears, read: Table 3 right half, hypodermic administration, serum 8 days after sensitization, control 269.2 (218.8-331.1).

As for `CCCCOC1(CO)OCC(O)C(O)C1O` [Compound No. 2, n-butyl-β-D-fructopyranoside], in data set [1] (setting [7]), the “PHA of rat: dilution of the serum which induced the minimum hemaglutination” value (“PHA of rat” below) came out at 600. Also, the “PCA of rat: dilution of the serum which induced the minimum extravasted dye” value (from here on “PCA of rat”) in data set [2] (setting [8]) was found to be 147; in data set [2] (setting [9]), 84.4.

Take `CC(C)COC1(CO)OCC(O)C(O)C1O` [Compound No. 3, isobutyl-β-D-fructopyranoside]: in data set [1] (setting [7]), the “PHA of rat” value came out at 630. For the same compound, the results for the “PCA of rat” value in data set [2] (setting [8]) and in data set [2] (setting [9]) were 73.5 and 97.0, respectively. Moreover, the figures for the “PCA of mice (serum dilution)” value in data set [3] (setting [10]), in data set [3] (setting [11]) and in data set [3] (setting [12]) were 118 ± 37, 563 ± 125 and 256 ± 129, respectively.

In the case of `CCCCCOC1(CO)OCC(O)C(O)C1O` [Compound No. 4, n-pentyl-β-D-fructopyranoside], in data set [4] (setting [13]), the “PHA of mice (serum dilution)” value is 309.0 (251.2-380.2). Further, the LD50 at 504 h in data set [5] (ip, abdominally, female) was more than 2780 mg/kg; in data set [5] (ip, abdominally, male), more than 2780 mg/kg; in data set [5] (iv, intravenously, female), 660 mg/kg; in data set [5] (iv, intravenously, male), 670 mg/kg; in data set [5] (po, orally, female), more than 4000 mg/kg; in data set [5] (po, orally, male), more than 4000 mg/kg. Moreover, the 50% lethal dose (LD50) at 504 h in data set [5] (sc, hypodermically, female) is 1300 mg/kg; in data set [5] (sc, hypodermically, male) it was 1500 mg/kg; in data set [6] (ip, abdominally, female), 2360 mg/kg; in data set [6] (ip, abdominally, male), 2590 mg/kg; in data set [6] (iv, intravenously, female), 930 mg/kg; in data set [6] (iv, intravenously, male), 760 mg/kg. For the same compound, the LD50 at 504 h in data set [6] (po, orally, female) was 3790 mg/kg; in data set [6] (po, orally, male), 3800 mg/kg; in data set [6] (sc, hypodermically, female) it was 1080 mg/kg; in data set [6] (sc, hypodermically, male), 1020 mg/kg. Also, the “PHA of rat” value in data set [1] (setting [7]) is listed as 3250; in data set [1] (setting [14]), 2454.7. The “PCA of rat” value in data set [2] (setting [8]) is 52.0; in data set [2] (setting [9]) it was 51.9; in data set [2] (setting [15]), 102.4. For the same compound, the “PCA of mice (serum dilution)” value in data set [3] (setting [10]) is recorded as 88 ± 24; in data set [3] (setting [11]) it was 328 ± 108; in data set [3] (setting [12]) it was 272 ± 80; in data set [3] (setting [16]), 177.83.

Regarding `CC(C)CCOC1(CO)OCC(O)C(O)C1O` [Compound No. 5, isopentyl-β-D-fructopyranoside], the “PCA of rat” value in data set [2] (setting [9]) turned out to be 90.5. The “PCA of mice (serum dilution)” value in data set [3] (setting [10]) was 316 ± 86; in data set [3] (setting [11]), 480 ± 142; in data set [3] (setting [12]), 448 ± 64.

As for `CCCCCCOC1(CO)OCC(O)C(O)C1O` [Compound No. 6, n-hexyl-β-D-fructopyranoside], in data set [1] (setting [7]), the “PHA of rat” value is on record as 810. The “PCA of rat” value in data set [2] (setting [8]) is 97.0; in data set [2] (setting [9]), 147. For the same compound, the “PCA of mice (serum dilution)” value came out at 320 in data set [3] (setting [10]), 288 in data set [3] (setting [11]) and 240 in data set [3] (setting [12]).

As for `CCCCOC1(CO)OCC(O)C(O)C1O` [Compound No. 9, n-butyl-α-L-sorbopyranoside], the “PHA of mice (serum dilution)” value in data set [4] (setting [17]) was 177.8; in data set [4] (setting [18]), 288.4 (245.5-354.8); in data set [4] (setting [19]), 102.3 (89.1-117.5); in data set [4] (setting [20]), 871.0 (660.7-1148.2). Besides, in data set [1] (setting [14]), the “PHA of rat” value is 5248.1. The “PCA of rat” value in data set [2] (setting [15]) is reported as 47.9. The “PCA of mice (serum dilution)” value in data set [3] (setting [21]) is 380.2; in data set [3] (setting [22]) it was 708.0; in data set [3] (setting [23]) it was 218.8; in data set [3] (setting [24]) it was 1513.6; in data set [3] (setting [16]) it was 251.19.

As for `CCCCCOC1(CO)OCC(O)C(O)C1O` [Compound No. 11, n-pentyl-α-L-sorbopyranoside], the “PHA of mice (serum dilution)” value in data set [4] (setting [17]) is listed as 177.8; in data set [4] (setting [13]) it was 354.8 (288.4-457.1); in data set [4] (setting [19]), 109.7 (83.2-144.5); in data set [4] (setting [20]), 1621.8 (1318.3-1995.3). The “PHA of rat” value in data set [1] (setting [25]) is 3467.4 (2630.3-4570.8). The “PCA of rat” value in data set [2] (setting [26]) is 154.9 (134.9-177.8). Further, the “PCA of mice (serum dilution)” value in data set [3] (setting [21]) is 501.2; in data set [3] (setting [16]), 177.83.

In the case of `CC(C)CCOC1(CO)OCC(O)C(O)C1O` [Compound No. 12, isopentyl-2-L-sorbopyranoside], the “PHA of mice (serum dilution)” value is reported as 109.7 in data set [4] (setting [17]), 218.8 (109.7-436.5) in data set [4] (setting [18]), 144.5 (125.9-166.0) in data set [4] (setting [19]) and 1230.3 (871.0-1737.8) in data set [4] (setting [20]). The “PHA of rat” value in data set [1] (setting [25]) is given as 6025.6 (4897.8-7413.1). Also, the “PCA of rat” value in data set [2] (setting [26]) was 234.4 (204.2-269.2). Further, the “PCA of mice (serum dilution)” value in data set [3] (setting [21]) is 269.2.

For `CCCCCCOC1(CO)OCC(O)C(O)C1O` [Compound No. 13, n-hexyl-α-L-sorbopyranoside], the “PHA of mice (serum dilution)” value is 109.7 in data set [4] (setting [17]), 125.9 (83.2-190.6) in data set [4] (setting [18]), 102.3 (89.1-117.5) in data set [4] (setting [19]) and 1148.2 (758.6-1737.8) in data set [4] (setting [20]). In addition, the “PHA of rat” value in data set [1] (setting [25]) is 4265.8 (2630.3-6918.3). Also, the “PCA of mice (serum dilution)” value in data set [3] (setting [22]) stood at 380.2; in data set [3] (setting [23]), 708.0; in data set [3] (setting [24]), 3235.9.

Turning to `O=P1(N(CCCl)CCCl)NCCCO1` (centres unmarked) [Cyclophosphamide, reference compound], the “PCA of rat” value in data set [2] (setting [9]) worked out at 16.0. Moreover, the “PCA of mice (serum dilution)” value is 214 ± 103 in data set [3] (setting [10]), 561 ± 71 in data set [3] (setting [11]) and 368 ± 146 in data set [3] (setting [12]).

For the origin of these results see patent publication US4395405A, “Alkyl-ketohexopyranoside derivatives and method of use” (Hisamitsu Pharmaceutical Co., Inc., priority 1979, dated 1983).
